# Test results reported in ChEMBL document CHEMBL1137112, “4-Acylamino-6-arylfuro[2,3-d]pyrimidines: potent and selective glycogen synthase kinase-3 inhibitors” (Bioorg Med Chem Lett, 2004).
# Columns and labels:
# [1] = target: Cyclin-dependent kinase 2 (Homo sapiens, UniProt P24941); experiment: Inhibition of cyclin-dependent kinase 2
# [2] = target: Glycogen synthase kinase-3 beta (Homo sapiens, UniProt P49841); experiment: Inhibition of human Glycogen synthase kinase-3 beta
# [3] = target: Vascular endothelial growth factor receptor 2 (Homo sapiens, UniProt P35968); experiment: Inhibition of Vascular endothelial growth factor receptor 2 kinase
# Chain of Vascular endothelial growth factor receptor 2 (P35968 whole entry): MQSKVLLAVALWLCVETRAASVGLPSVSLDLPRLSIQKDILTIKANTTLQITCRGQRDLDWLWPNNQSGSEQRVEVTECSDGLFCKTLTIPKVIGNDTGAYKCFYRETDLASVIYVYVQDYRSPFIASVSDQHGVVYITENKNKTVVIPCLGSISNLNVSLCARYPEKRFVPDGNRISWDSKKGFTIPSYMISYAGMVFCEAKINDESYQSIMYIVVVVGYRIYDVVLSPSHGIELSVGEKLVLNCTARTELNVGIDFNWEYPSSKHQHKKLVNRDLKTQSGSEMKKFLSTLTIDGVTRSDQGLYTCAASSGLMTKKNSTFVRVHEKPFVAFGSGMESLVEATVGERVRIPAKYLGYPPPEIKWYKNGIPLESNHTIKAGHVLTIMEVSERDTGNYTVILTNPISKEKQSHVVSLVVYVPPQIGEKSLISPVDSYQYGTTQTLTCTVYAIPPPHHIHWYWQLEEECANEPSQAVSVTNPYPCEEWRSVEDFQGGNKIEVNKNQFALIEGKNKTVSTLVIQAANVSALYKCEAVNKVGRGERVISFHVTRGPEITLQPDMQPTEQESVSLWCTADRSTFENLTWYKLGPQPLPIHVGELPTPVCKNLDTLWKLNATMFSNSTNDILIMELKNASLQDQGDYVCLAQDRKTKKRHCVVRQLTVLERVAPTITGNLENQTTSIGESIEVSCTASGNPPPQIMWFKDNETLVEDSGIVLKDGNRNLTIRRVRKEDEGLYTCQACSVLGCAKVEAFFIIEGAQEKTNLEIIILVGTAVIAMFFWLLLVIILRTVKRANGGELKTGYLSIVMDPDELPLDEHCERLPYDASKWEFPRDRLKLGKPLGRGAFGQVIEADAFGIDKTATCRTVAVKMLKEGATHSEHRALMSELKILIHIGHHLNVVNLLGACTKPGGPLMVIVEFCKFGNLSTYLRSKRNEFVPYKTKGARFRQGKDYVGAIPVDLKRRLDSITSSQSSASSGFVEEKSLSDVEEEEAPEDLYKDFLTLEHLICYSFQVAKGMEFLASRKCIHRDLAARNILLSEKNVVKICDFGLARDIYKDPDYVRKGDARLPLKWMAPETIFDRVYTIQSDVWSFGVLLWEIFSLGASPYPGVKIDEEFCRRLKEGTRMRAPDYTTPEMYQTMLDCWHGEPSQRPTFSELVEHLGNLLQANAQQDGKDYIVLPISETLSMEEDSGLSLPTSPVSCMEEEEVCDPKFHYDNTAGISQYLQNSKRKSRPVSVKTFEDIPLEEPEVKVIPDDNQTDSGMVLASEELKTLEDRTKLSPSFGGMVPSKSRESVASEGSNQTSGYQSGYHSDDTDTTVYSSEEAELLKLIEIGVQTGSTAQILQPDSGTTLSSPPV
# [4] = test system: L6; experiment: Potency of compound in glycogen accumulation in L6 cells; type: functional, cell-based; settings: Rattus norvegicus
# Chain of Glycogen synthase kinase-3 beta (P49841 whole entry): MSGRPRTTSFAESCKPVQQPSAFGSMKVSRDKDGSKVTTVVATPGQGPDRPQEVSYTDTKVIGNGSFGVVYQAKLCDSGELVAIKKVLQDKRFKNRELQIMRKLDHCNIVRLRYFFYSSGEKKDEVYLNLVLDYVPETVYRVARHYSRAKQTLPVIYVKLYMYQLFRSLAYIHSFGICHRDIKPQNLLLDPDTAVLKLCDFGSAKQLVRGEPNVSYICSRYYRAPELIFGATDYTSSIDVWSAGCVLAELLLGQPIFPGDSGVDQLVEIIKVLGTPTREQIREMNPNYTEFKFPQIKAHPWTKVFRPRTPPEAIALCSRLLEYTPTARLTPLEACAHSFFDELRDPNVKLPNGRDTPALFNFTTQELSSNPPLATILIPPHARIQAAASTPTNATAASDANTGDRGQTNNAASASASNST
SMILES,IC50 [1],IC50 [2],IC50 [3],EC50 [4]
Cc1ccc(-c2cc3c(NC(=O)C4CCCC4)ncnc3o2)cc1,> 20000 nM,240 nM,> 20000 nM,–
O=C(Nc1ncnc2oc(-c3ccc(Cl)cc3)cc12)C1CC1,> 20000 nM,1000 nM,2040 nM,–
O=C(Nc1ncnc2oc(-c3ccccc3)cc12)C1CCCC1,> 19000 nM,20 nM,> 23000 nM,> 10000 nM
COc1ccc(-c2cc3c(NC(=O)C(C)C)ncnc3o2)cc1,> 21000 nM,130 nM,> 48000 nM,–
O=C(Nc1ncnc2oc(-c3ccc(Cl)cc3)cc12)C1CCCC1,> 20000 nM,550 nM,> 20000 nM,–
O=C(Nc1ncnc2oc(-c3ccc(F)cc3)cc12)C1CC1,> 19000 nM,575 nM,2040 nM,–
COc1ccc(-c2cc3c(NC(=O)c4ccco4)ncnc3o2)cc1,> 20000 nM,2400 nM,> 48000 nM,–
O=C(Nc1ncnc2oc(-c3ccc(F)cc3)cc12)C1CCCC1,> 19000 nM,219 nM,> 19000 nM,–
O=C(Nc1ncnc2oc(-c3ccccc3)cc12)C1CC1,> 21000 nM,170 nM,830 nM,–
O=C(Nc1ncnc2oc(-c3cccnc3)cc12)C1CC1,440 nM,5 nM,3240 nM,740 nM
COc1ccc(-c2oc3ncnc(N)c3c2-c2cccnc2)cc1,–,80 nM,–,–
COc1ccc(-c2cc3c(NC(=O)C4CC4)ncnc3o2)cc1,> 20000 nM,316 nM,3550 nM,–
COc1ccc(-c2cc3c(NC(=O)c4cccc(F)c4)ncnc3o2)cc1,> 21000 nM,> 35000 nM,21900 nM,–
Cc1ccc(-c2cc3c(NC(=O)C4CC4)ncnc3o2)cc1 [GW819230X],> 21000 nM,617 nM,630 nM,–

# The next lines start with results.
IC50 [1],IC50 [2],IC50 [3],SMILES,EC50 [4]
> 20000 nM,> 34000 nM,> 48000 nM,COc1ccc(-c2cc3c(NC(=O)N4CCOCC4)ncnc3o2)cc1,–
> 21000 nM,1950 nM,12300 nM,COc1ccc(-c2cc3c(NC(=O)N4CCCC4)ncnc3o2)cc1,–
> 19000 nM,30 nM,1020 nM,COc1ccc(-c2cc3c(NC(=O)C4CCCC4)ncnc3o2)cc1,–
450 nM,5 nM,> 24000 nM,O=C(Nc1ncnc2oc(-c3cccnc3)cc12)C1CCCC1,390 nM
> 20000 nM,537 nM,> 47000 nM,COc1ccc(-c2cc3c(NC(=O)CCSC)ncnc3o2)cc1,–
> 19000 nM,320 nM,> 48000 nM,COc1ccc(-c2cc3c(NC(=O)CC4CCCC4)ncnc3o2)cc1,–
> 20000 nM,1820 nM,> 48000 nM,COc1ccc(-c2cc3c(NC(=O)C4CCCCC4)ncnc3o2)cc1,–
> 19000 nM,437 nM,> 48000 nM,CCCCCC(=O)Nc1ncnc2oc(-c3ccc(OC)cc3)cc12,–
